Biological target: T1, SMO (Mus musculus, UniProt P56726)
T1 construct: expressed in transfected cells; host or cells: HEK293T
Assay: SMO binding assay (BODIPY-cyclopamine displacement)
Format: cell-based
Conditions: HEK293T cells expressing SMO, 5 nM BODIPY-cyclopamine
Method: Supplementary Figure S2. […] HEK293T cells […]
ectopically expressing SMO were treated with different concentrations of 7a or Vismodegib and DMSO as controls in the presence of BODIPY-cyclopamine (5 nM) for 5 h. The graph […]
activated cell sorting analysis. Data are mean values of three independent experiments (n=3) ± […]
using a three-fold dilution series starting from a concentration of 30 μM. Half-maximal inhibitory concentrations (IC50) were calculated using the Quattro software suite (Quattro Research, Planegg, Germany) or GraphPad Prism 7 (GraphPad, USA).
The effect of test compounds on the viability of C3H/10T1/2 cells was determined by CellTiter-Glo Luminescence cell viability assay (Promega). Cells were treated as described for the osteogenesis assay prior to addition of the CellTiter-Glo® reagent according to manufacturer’s protocol. Compounds causing at least a 50% reduction in the osteogenesis assay and retaining cell viability of at least 80% were considered as hits. Dose-response analyses were performed for all hit compounds using a three-fold dilution series starting from a concentration of 30 μM. Half-maximal inhibitory concentrations (IC50) were calculated using the Quattro software suite (Quattro Research GmbH).
GLI-dependent reporter gene assay
Shh-LIGHT2 cells were seeded (2.5×10^4 per well) in 96-well plates. After incubation for 16 h, medium was replaced by low serum-containing medium (0.5% FCS) supplemented with 1.5 μM purmorphamine and various concentrations of the compounds or DMSO as a control and cells were incubated for 48 h. Firefly and Renilla luciferase activities were determined by means of the Dual-Luciferase® Reporter Assay System (Promega) according to the manufacturer’s protocol and luminescence was measured using the Spark plate reader (Tecan, […]
HEK293T cells were seeded (1.5×10^4 per well) on poly-D-lysine-coated coverslips placed in a 24-well plate. 24 h later cells were transfected with the SMO-expressing plasmid (pGEN-mSMO) using FuGENE HD (Promega) according to the manufacturer’s protocol. […]

T1 sequence (P56726 33-793): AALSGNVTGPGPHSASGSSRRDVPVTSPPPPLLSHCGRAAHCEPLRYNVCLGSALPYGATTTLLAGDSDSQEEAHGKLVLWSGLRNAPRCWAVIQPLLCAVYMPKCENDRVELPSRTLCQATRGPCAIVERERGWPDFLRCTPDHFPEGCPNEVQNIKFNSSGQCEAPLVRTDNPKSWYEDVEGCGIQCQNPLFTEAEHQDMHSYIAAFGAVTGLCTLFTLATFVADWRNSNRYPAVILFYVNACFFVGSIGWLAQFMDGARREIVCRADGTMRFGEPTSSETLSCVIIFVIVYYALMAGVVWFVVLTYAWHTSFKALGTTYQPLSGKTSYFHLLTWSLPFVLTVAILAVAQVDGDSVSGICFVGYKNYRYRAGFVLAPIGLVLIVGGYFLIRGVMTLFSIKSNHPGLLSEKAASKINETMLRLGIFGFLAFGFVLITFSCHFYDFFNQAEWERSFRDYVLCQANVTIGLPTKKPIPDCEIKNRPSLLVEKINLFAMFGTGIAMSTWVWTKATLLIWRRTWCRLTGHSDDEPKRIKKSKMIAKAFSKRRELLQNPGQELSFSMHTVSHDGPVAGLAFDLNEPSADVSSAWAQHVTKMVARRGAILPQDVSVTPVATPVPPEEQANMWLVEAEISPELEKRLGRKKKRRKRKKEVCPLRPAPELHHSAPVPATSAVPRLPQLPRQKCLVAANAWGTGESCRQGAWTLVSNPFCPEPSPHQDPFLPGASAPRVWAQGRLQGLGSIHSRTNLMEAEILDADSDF

Displacement of BODIPY-cyclopamine from SMO (in words) (listed as 7 a)	SMILES	Displacement of BODIPY-cyclopamine from SMO (in words)
did not displace	COC(=O)C1(C(CC(=O)c2ccccc2)c2ccccc2)N=C(c2ccc(Br)cc2)C2C(=O)N(C)C(=O)C21 (stereo not drawn) [7a]	does not displace
	COC(=O)C1(C(CC(=O)c2cccnc2)c2ccccc2)N=C(c2ccc(Br)cc2)C2C(=O)N(C)C(=O)C21 (stereo not drawn) [7l]	partial decrease
